Reference: patent US20230212202A1, “TREATMENT OF MGMT DEFICIENT CANCER WITH 2-FLUOROETHYL-SUBSTITUTED NITROSOUREAS AND OTHER COMPOUNDS” (YALE UNIVERSITY, priority 2021, published 2023)
“And” between values parts separate entries of the source, which are not always exact repeats. Equal entries are not always repeated. Where two headings read alike, the source gives them in different places.

Legend:
[1] = test system: LN229 human brain glioblastoma cells MGMT+ MMR+; test: Anticancer activity towards LN229 cells (Example 15); format: cell-based; details: read-out: MGMT+ MMR+ Activity
Description: (§1) LN229 quad cells were maintained in Dulbecco’s Modified Eagle Medium (DMEM) supplemented with 10% fetal bovine serum. Cells were plated into sterile black with glass bottom 384-well plates (Cellvis) at a concentration of 1,000 cells/well (20 µL total volume) using a MultiDrop (Thermo Fisher). Then, assay plates were centrifuged at 300 rpm for 2 seconds and incubated overnight in a 37° C. 5% CO2 incubator. Compounds were prepared as 100 mM stocks in DMSO and stored protected from light at -20′C until use. Prior to compound addition, the stock solutions of compound were diluted two-fold serially in DMSO from 100 mM down to 0.05 mM in a 384-well Source plate. Vehicle control wells containing DMSO and positive control wells containing 10 mM bortezomib were also added to the Source plate. An aliquot in the amount of 40 nL of compound stock solution or DMSO vehicle was transferred from the source plate to the cell assay plate using an Echo Acoustic dispense (Beckman). Three replicate dilution curves of each compound were run on each assay plate. An aliquot in the amount of 120 nL of a 10 mM bortezomib solution was transferred to the positive control wells resulting in a final concentration of 60 µM. The final concentration of compounds ranged from 200 µM to 0.1 µM (12-point, 2-fold dilution dose response curve), and the final DMSO concentration was 0.2%.
(§2) Assay plates were centrifuged at 500 rpm for 2 seconds and incubated for 120 hours at 37° C. in a humidified 5% CO2 incubator. Following incubation, cells were fixed with 4% paraformaldehyde and stained with DAPI for nuclei visualization. The images were acquired on the InCell 2200 high content imager (GE, now […]), and quantified using InCell Analyzer image analysis software. Z prime factor, signal-to-background and coefficient of variation were calculated for each assays plate using mean and standard deviation values of the negative (vehicle) and positive (bortezomib) control wells to ensure assay robustness. Raw cell count data for test compounds was normalized to percent viability relative to the DMSO vehicle control. Data was plotted in GraphPad Prism using a variable slope 4-parameter fit.

[2] = test system: LN229 human brain glioblastoma cells MGMT+ MMR-; test: as above; format: cell-based; details: read-out: MGMT+ MMR -Activity
Description: as §1, §2

[3] = test system: LN229 human brain glioblastoma cells MGMT- MMR+; test: as above; format: cell-based; details: read-out: MGMT -MMR + Activity
Description: as §1, §2

[4] = test system: LN229 human brain glioblastoma cells MGMT- MMR-; test: as above; format: cell-based; details: read-out: MGMT -MMR-Activity
Description: as §1, §2

[5] = test system: linearized pUC19 plasmid DNA; test: Melting temperature assay; format: biochemical; details: 100 or 500 µM, 3 h
[6] = test system: PD20 cells, FANCD2-/- or +FANCD2; test: Short-term viability assay; format: cell-based, human; details: PD20 FANCD2-/- vs +FANCD2
[7] = test system: PEO4 (BRCA2+) and PEO1 (BRCA2-/-) cells; test: Short-term viability assay with or without O6BG; format: cell-based, human; details: for therapeutic index (TI): PEO1/4 model; for sensitivity of BRCA2-/- cells: PEO1/PEO4, ±O6BG
[8] = test system: DLD1 BRCA2+/- and BRCA2-/- cells; test: Short-term viability assay with or without O6BG; format: cell-based, human; details: for sensitivity of BRCA2-/- cells: DLD1, ±O6BG; for therapeutic index (TI), ratio of IC50 values in MGMT+/BRCA2+ cells compared to MGMT-/BRCA2- cells: DLD1 isogenic model
[9] = test system: LN229 MGMT+/-, MMR+/- cells; test: Short-term cell viability assay, four isogenic LN229 glioblastoma cell lines; format: cell-based, human
LN229 MGMT-/MMR- cells [10] = test: IR alkaline comet assay; format: cell-based, human; details: 200 µM, 2-24 h
[11] = 37° C., pH 7.4; cited from earlier work
[12] = test system: LN229 MGMT+/-, MMR+/- cells; test: Clonogenic survival assay; format: cell-based, human
Description: Clonogenic Cell Survival Assay. Cells were trypsinized, washed, counted, and diluted in a medium containing various concentrations of drug. They were then immediately seeded in six-well plates in triplicate at three-fold dilutions, ranging from 9000 to 37 cells per well. Depending on colony size, these plates were kept in the incubator for 10 to 14 days. After incubation, colonies were washed in phosphate-buffered saline (PBS), stained with crystal violet, counted, and quantified.

LN229 MGMT-/MMR- cells [13] = test: Short-term cell viability assay; format: cell-based, human; details: LN229 MGMT-/MMR- cells
[14] = test system: DLD1 MSH6-deficient cells; test: Short-term viability assay with or without O6BG; format: cell-based, human; details: with or without O6BG-induced MGMT depletion
Description: (§3) Short-term Cell Viability Assay.

[15] = test system: HCT116 MLH1-/- cells or HCT116 +Chr3 cells; test: Short-term viability assay with or without O6BG; format: cell-based, human
Description: as §3

[16] = test system: LN229 MGMT-/MMR- flank tumors; test: Xenograft flank tumor model; format: in vivo, mouse; details: 5 mg/kg MWF × 3 weeks
LN229 MGMT-/MMR+ cells = test: IR alkaline comet assay; format: cell-based, human
[17] = Homo sapiens, LN-229, 120 hours

Cc1ncc(CNC(=O)N(CCF)N=O)c(N)n1
IC50 [1, 17]: > 90 µM | IC50 [2, 17]: > 90 µM | IC50 [3, 17]: > 90 µM | IC50 ([4]; Homo sapiens, LN-229, 120 h): < 50 µM

COS(C)(=O)=O [MMS, Methylmethane sulfonate, reference compound]
DNA melting temperature [5]: comparable changes in measured DNA melting temperature

N.N.[Cl][Pt][Cl] [cisplatin]
sensitivity of FANCD2-deficient cells [6]: hypersensitivity to crosslinking agents in FANCD2-/-cells | therapeutic index (TI) [7]: 13 fold | sensitivity of BRCA2-/- cells [7]: hypersensitivity of PEO4 BRCA2-/-cells to crosslinking agents independent of MGMT depletion | sensitivity of BRCA2-/- cells [8]: hypersensitivity of DLD1 BRCA2-/- cells to crosslinking agents independent of MGMT depletion | therapeutic index (TI), ratio of IC50 values in MGMT+/BRCA2+ cells compared to MGMT-/BRCA2- cells [8]: 42 fold

NC(=O)c1ncn2c(=O)n(CCCl)nnc12 [MTZ, mitozolomide, reference compound]
selectivity for MGMT-deficient cells ([9]; LN229, listed as 12a): ~ 7 fold | DNA damage in unirradiated samples, time course (LN229 MGMT-/MMR- cells [10]; 0 Gy): maximal damage at 2 h | DNA mobility after IR, time course (LN229 MGMT-/MMR- cells [10]; 10 Gy): reduced DNA mobility within 2 h

CCOP(=O)(OCC)C(C)NC(=O)N(CCF)N=O (centres unmarked)
IC50 ([1]; 120 hours): > 90 µM | IC50 ([2]; 120 hours): > 90 µM | IC50 ([3]; 120 hours): > 90 µM | IC50 ([4]; 120 hours): < 50 µM

Nc1nc(OCCF)c2ncn([C@@H]3O[C@H](CO)[C@@H](O)[C@H]3O)c2n1 [Compound S1, O^6-(2-fluoroethyl)guanosine]
half-life of hydrolysis [11]: 18.5 h and ~ 18.5 h

Nc1nc(OCCCl)c2ncn([C@@H]3O[C@H](CO)[C@@H](O)[C@H]3O)c2n1 [Compound S4, O^6-(2-chloroethyl)guanosine]
half-life of hydrolysis [11]: ~ 18 min

O=NN(CCF)C(=O)NCCCl
IC50 ([1]; Homo sapiens, LN-229, 120 h): > 90 µM | IC50 ([2]; Homo sapiens, LN-229, 120 h): > 90 µM | IC50 ([3]; Homo sapiens, LN-229, 120 h): 50 to 90 µM | IC50 ([4]; Homo sapiens, LN-229, 120 h): < 50 µM

O=NN(CCCl)C(=O)NC1CCCCC1 [Lomustine, lomustine, reference compound]
clonogenic survival, MGMT+ cells ([12]; LN229 MGMT+ cells): cytotoxic to MGMT+ cells | clonogenic survival, MGMT- cells ([12]; LN229 MGMT- cells, MMR+/-): effective in MMR- cells

CC(F)CN/N=N/c1[nH]cnc1C(N)=O (centres unmarked) [Compound 10]
potency in MGMT-/MMR- cells (LN229 MGMT-/MMR- cells [13]): reduced potency

O=NN(CCF)C(=O)NC1CCCCC1
IC50 [1, 17]: > 90 µM | IC50 [2, 17]: 50 to 90 µM | IC50 [3, 17]: < 50 µM | IC50 [4, 17]: < 50 µM

NC(=O)c1nc[nH]c1/N=N/NCCCF [Compound 11]
activity in the four LN229 cell lines ([9]; MGMT+/-, MMR+/-): low activity in all four cell lines

Cn1nnc2c(C(N)=O)ncn2c1=O [TMZ, temozolomide, reference compound]
IC50 (LN229 MGMT-/MMR- cells [13]; Homo sapiens, LN-229, read-out: IC50): 838 µM | activity in DLD1 cells [14]: inactive | activity in HCT116 cells [15]: inactive | tumor growth ([16]; P.O.): no efficacy | median OS ([16]; Kaplan-Meier): 10 weeks

CO[C@@]12[C@H](COC(N)=O)C3=C(C(=O)C(C)=C(N)C3=O)N1C[C@@H]1N[C@@H]12 [MMC, Mitomycin C]
IR-induced comet tail (ICL detection) (LN229 MGMT-/MMR+ cells; 0.1 µM, 24 h): partial reduction in the IR-induced comet tail | IR-induced comet tail (ICL detection) (LN229 MGMT-/MMR+ cells; 50 µM, 2 h): completely abolished the IR-induced comet tail | comet tailing in the absence of IR (LN229 MGMT-/MMR+ cells; TMZ, KL-50 200 µM, MMC 0.1 or 50 µM): did not | sensitivity of FANCD2-deficient cells [6]: hypersensitivity to crosslinking agents in FANCD2-/-cells | therapeutic index (TI) [7]: 7 fold | sensitivity of BRCA2-/- cells [7]: hypersensitivity of PEO4 BRCA2-/-cells to crosslinking agents independent of MGMT depletion | sensitivity of BRCA2-/- cells [8]: hypersensitivity of DLD1 BRCA2-/- cells to crosslinking agents independent of MGMT depletion | therapeutic index (TI), ratio of IC50 values in MGMT+/BRCA2+ cells compared to MGMT-/BRCA2- cells [8]: 26 fold
